What was measured:
healthy subjects [1] = assay: Double-blind, placebo-controlled dose titration clinical study; heart rate by continuous telemetry; type: in vivo, human
Method: A single-center, double-blind, placebo-controlled, dose titration, once-daily, multiple-oral-dose clinical study in healthy subjects was conducted to evaluate the effect of a dosage regimen of FTY720 according to the present invention. A total of 36 subjects were randomly assigned to one of the three groups. Each subject participated in a screening period of maximal 21 days, a baseline period (Day −1), a 9-day dose-administration period, and clinical study completion assessments on Day 10. Subjects were assigned to one of the three groups (dose titration regimen group, placebo control group, or active control group) and received the once daily dose in a double-blinded manner (Table 1). In the dose titration group, increasing once daily doses of Compound A (FTY720), starting at 0.125 mg o.d. and ending at the maximal therapeutic dose of 1.25 mg o.d. were administered on days 1 to 9 of the study according to the schedule shown in Table 1 below. The placebo control group received placebo through out the duration of the study and the active control group received a once daily dose of 1.25 mg of FTY720 on days 1 to 9. [table] Pharmacodynamic and safety assessments are performed up to 24 hours post last dose. Heart rate is monitored via telemetry on Day −1 through Day 10, 24 hour after the last dosing. Heart rhythm is assessed via 24 hr continuous holter monitoring on Day −1, Day 1, and Day 9. For each dosing for each subject, the drug is administered as closely as practically possible to the time administered on Day −1. Safety assessments includes physical examinations, vital signs and body measurements, 12-lead ECG evaluations, standard clinical laboratory evaluations hematology, blood chemistry, urinalysis, adverse event and serious adverse event monitoring. Systolic and diastolic blood pressure and pulse are measured after the subject has rested quietly in the sitting position for at least 3 minutes. Blood pressure is measured at the same arm on each occasion. Standard 12-lead ECGs are recorded at Screening, baseline, 4 hours post-dose on Day 1 and Day 8, and at Study Completion. The variables recorded are: date and time of ECG, heart rate, PR interval, QT interval (uncorrected), QTcB, QRS duration. The overall interpretation is collected with a Yes/No statement to confirm if any clinically relevant abnormalities are present, which needs to be specified further. Subjects remain on continuous telemetry, starting before breakfast on Day −1 and proceeding throughout the administration period up to Day 10 (24 hour after the last dose). Over this ten day duration of continuous heart rate collection for each subject, one heart rate value is obtained every minute (‘minute unit heart rate’), representing the average heart rate value over that minute. The heart rate database for each subject contains approximately 14,400 data points (10 days×24 hr×60 min). 24-hour continuous Holter-ECG data are captured via a digital Holter monitor (12-lead, on Days −1, 1, 6, and 8), and transferred for interpretation and reporting. Holter monitoring starts approximately at 7:00 and the time of dose administration is regarded as the time “0 hours”. Holter “cuts” are derived from the dataset at 1 hour intervals starting from Day −1 and continuing for 24 hours or the end of the cleaned Holter monitoring dataset. Cardiac conduction intervals: arrhythmia monitoring includes the frequency and duration of sinus pauses (>2 sec and >3 sec) and atrio-ventricular blocks. Frequency and duration of atrial and ventricular ectopy and sinus rhythm are also recorded. The daily chronotropic effect is defined as the percent decrease in HRmin (minimum heart rate) between two consecutive days. It is calculated on days 1 to 9.

healthy subjects [2] = settings: administration of 1.25 mg of FTY720; cited from earlier work
multiple sclerosis = settings: humans; cited from earlier work

Structure (SMILES): CCCCCCCCc1ccc(CCC(N)(CO)CO)cc1.Cl [FTY720, 2-amino-2-[2-(4-octylphenyl)ethyl]propane-1,3-diol]
- additional decrease in daily average heart rate from Day 1 to Day 2 (healthy subjects [1]; active control group, 1.25 mg once daily, Day 1 to Day 2): approximately 3 BPM
- decrease in daily average heart rate from Day -1 to Day 1 (healthy subjects [1]; active control group, 1.25 mg once daily, Day -1 to Day 1): approximately 8 BPM
- gradual decrease in daily average heart rate per day (healthy subjects [1]; dose titration group 0.125/0.25/0.5/1.25 mg o.d., over the eight day course of the titration): 1-2 BPM per day
- heart rate on initiation of 1.25 mg on Day 8 compared to the preceding days (healthy subjects [1]; dose titration group, Day 8, first 1.25 mg dose): does not result in dip in heart rate
- daily minimum heart rates during the course of the study (healthy subjects [1]; dose titration regimen compared with 1.25 mg once daily group): improved daily minimum heart rates
- negative chronotropic effect on Day 1 of treatment initiation (healthy subjects [1]; dose titration regimen versus 1.25 mg from Day 1): attenuates the negative chronotropic effect
- decrease in heart rate (healthy subjects [2]): approximately 8 beats/min (BPM)
- efficacy in the treatment of multiple sclerosis (multiple sclerosis): has been demonstrated in humans

Source: US20190091180A1, “DOSAGE REGIMEN FOR A S1P RECEPTOR AGONIST” (Novartis AG, priority 2008, published 2019)
